In US20140275128A1, “METHOD OF PROVIDING OCULAR NEUROPROTECTION” (INOTEK PHARMACEUTICALS CORPORATION, priority 2013, published 2014):

What was measured:
retinal ganglion cells [1] = assay: Ischemia-induced retinal ganglion cell death in Long-Evans rats (high IOP insult, histology); type: in vivo; conditions: topical; for percent of RGC protected from ischemic insult (FIG. 4): two drops before 60 min ischemia at 110 mmHg, Compound A 2.5% ophthalmic suspension or 0.2% brimonidine tartrate, histology at 7 days; for retinal thinning of inner retina (GCL, IPL) after high IOP (FIG. 2): versus healthy contralateral eye, 7 days
Method: Treatment groups of 10 male Long Evans rats, six to eight weeks of age, were anesthetized by i.p. injection of a combination of ketamine (80 mg/kg) and xylazine (8 mg/kg). Additional ketamine was administered as needed to maintain appropriate anesthetic depth, and body temperature was maintained by use of an isothermal pad placed under the animal. Once under anesthesia, topical anesthetic (0.5% proparacaine hydrochloride, single drop) was applied to the cornea of the right eye. […] Several minutes after the second treatment, the anterior chamber of the right eye was cannulated with a 30G needle connected to an elevated reservoir of sterile Hanks balanced salt solution with a fluid level 59 inches above eye level (equivalent to a hydrostatic pressure of 110 mmHg) behind a closed stopcock. Five minutes after the second treatment (fifteen minutes after application of topical anesthetic), the stopcock was opened, and the rise in pressure was directly visualized by inflation of the globe. Animals that suffered an injury to the iris or cornea (beyond the single entry point) were excluded from the study. Sixty minutes after inducing the rise in pressure, the ischemic injury was terminated by closing the stopcock and removing the cannula. The needle entry wound was sealed with veterinary tissue adhesive and the animals allowed to recover from anesthesia before being returned to housing.
Seven days after ischemic injury animals were sacrificed by CO2 inhalation and globes dissected with the proximal optic nerves intact. The anterior chamber was removed, and the eyes were fixed for 30 minutes in 4% paraformaldehyde/PBS, followed by overnight incubation in 30% sucrose. Fixed eyes were trimmed of additional connective tissue and cut along a sagittal plane to generate a flat face for embedding, and the exposed retinal edge was attached to the sclera with tissue adhesive. The eye was infiltrated with increasing strengths of JB-4 embedding medium (glycol methacrylate; GMA), followed by embedding in JB-4 at 4° C. for sagittal sectioning. Optic nerves were co-embedded with their paired retina for transverse sectioning. Embedded tissues were sectioned through or near the optic nerve head at a thickness of 2 μm, and collected on slides for further analysis.
For histological analysis of retinas, sections were stained with 1% toluidine blue in absolute ethanol for 40 seconds, and cover slipped for microscopic examination. Images were captured using cellSens Dimension software on an Olympus BX61 upright microscope with a motorized stage, using a 20× objective and a resolution of 169 nm/pixel, and stitched together using the multiple image alignment procedure of the software. Five locations were chosen at random from across the retina, avoiding areas of extreme curvature or extreme histological disruption, and the thickness of the retinal layers was assessed, as follows: ganglion cells (GCL; count of large, round nuclei in layer near retinal surface in 100 μm region centered on chosen location), inner plexiform layer (IPL; distance from nuclei in ganglion cell layer to nuclei in inner nuclear layer), inner nuclear layer (INL), outer plexiform layer (OPL; distance from nuclei in INL to nuclei in outer nuclear layer), outer nuclear layer (ONL), and total retinal thickness (TR distance from retinal surface above nerve fiber layer to edge of ONL). […]

A2A adenosine receptor = target: T1, A2A adenosine receptor (Homo sapiens, UniProt P29274); assay: Adenosine A2A receptor binding, A1 > A2A selectivity; conditions: ratio Ki A2A / Ki A1
T1 construct: expressed in transfected cells; host or cells: CHO cells
Method: The cell suspension is then homogenized in ice-cold hypotonic buffer (5 mM Tris/HCl, 2 mM EDTA, pH 7.4) and the homogenate is spun for 10 minutes (4° C.) at 1,000 g.

retinal ganglion cells [2] = conditions: nerve crush, acute and chronic ocular hypertension models; cited from earlier work
[3] = system: nerve fiber layer of the retina (RNFL); conditions: topical 0.2% solution, 12 months, compared to timolol; cited from earlier work
[4] = cited from earlier work; for study participants who discontinued the study due to adverse events: Low-Pressure Glaucoma Treatment Study

T1 sequence (P29274 whole entry): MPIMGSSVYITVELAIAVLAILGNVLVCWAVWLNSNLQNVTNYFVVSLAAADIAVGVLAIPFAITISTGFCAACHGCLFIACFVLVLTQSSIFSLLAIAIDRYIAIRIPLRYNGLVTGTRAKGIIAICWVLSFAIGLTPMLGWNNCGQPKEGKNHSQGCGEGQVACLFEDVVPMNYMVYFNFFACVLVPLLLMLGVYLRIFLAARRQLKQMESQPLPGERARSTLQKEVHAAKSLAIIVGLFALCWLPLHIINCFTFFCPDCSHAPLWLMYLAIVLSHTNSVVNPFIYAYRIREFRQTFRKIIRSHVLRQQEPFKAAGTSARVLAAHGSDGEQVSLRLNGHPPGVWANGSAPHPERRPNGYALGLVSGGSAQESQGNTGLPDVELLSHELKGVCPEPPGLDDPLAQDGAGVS

| Compound | percent of RGC protected from ischemic insult (FIG. 4) (retinal ganglion cells [1]) | retinal thinning of inner retina (GCL, IPL) after high IOP (FIG. 2) (retinal ganglion cells [1]; two drops before ischemia) | study participants who discontinued the study due to adverse events [4] | further results |
| --- | --- | --- | --- | --- |
| O=[N+]([O-])OC[C@H]1O[C@@H](n2cnc3c(NC4CCCC4)ncnc32)[C@H](O)[C@@H]1O [Compound A, ((2R,3S,4R,5R)-5-(6-(cyclopentylamino)-9H-purin-9-yl)-3,4-dihydroxytetrahydrofuran-2-yl)methyl nitrate] | 100% | blocked |  | percentage of protection across retinal layers (FIG. 3) (retinal ganglion cells [1]; two drops before ischemia, relative to vehicle and brimonidine): greater relative to the vehicle, and slightly greater than the effects of brimonidine |
| O=[N+]([O-])OC[C@H]1O[C@@H](n2cnc3c(NC4CCOC4)ncnc32)[C@H](O)[C@@H]1O (stereo partly drawn) [Compound D, ((2R,3S,4R,5R)-3,4-dihydroxy-5-(6-(tetrahydrofuran-3-ylamino)-9H-purin-9-yl)tetrahydrofuran-2-yl)methyl nitrate] |  |  |  | A1 > A2A SELECTIVITY [KiA2(nm)/KiA1(nm)] (A2A adenosine receptor): >9434 |
| Brc1c(NC2=NCCN2)ccc2nccnc12 [brimonidine] | around 80% | blocked | 28.3% | RGC survival (retinal ganglion cells [2]): improved RGC survival; loss in thickness of the nerve fiber layer of the retina (RNFL) [3]: reduce the loss in thickness of the nerve fiber layer of the retina; loss of visual field ([4]; 0.2% brimonidine, mean 30.0 month follow up, low pressure glaucoma, compared to timolol control): slow the loss of visual field |
| CC(C)(C)NC[C@H](O)COc1nsnc1N1CCOCC1 [timolol] |  |  | 11.4% |  |
